Measured values: article PMC6315694, “Synthesis of Pseudellone Analogs and Characterization as Novel T-type Calcium Channel Blockers” (Marine Drugs, 2018)

Target: T1, N-type CaV2.2 (Homo sapiens, UniProt Q00975)
T1 construct: endogenous in cells
Assay: HVA calcium channel FLIPR assay, N-type (SH-SY5Y cells)
Assay type: cell-based
Details: SH-SY5Y, 10 µM nifedipine present, N = 3, mean ± SEM, read-out: IC50 CaV2.2 (HVA CaVs)
Procedure: The human embryonic kidney 293 (HEK 293) cell lines (from Emmanuel Bourinet, Montpellier, France) stably expressing CaV3.2 or CaV3.3 were cultured under 5% carbon dioxide at 37 °C in Dulbecco’s Modified Eagle Medium (DMEM) Glutamax (Gibco, Life Technologies, Carlsbad, CA, USA) supplemented with 10% (v/v) fetal bovine serum (FBS), 100 U/mL penicillin, 100 μg/mL streptomycin (Gibco, Life Technologies), and 750 μg/mL geneticin (G418) (Gibco, Life Technologies). The Chinese Hamster Ovary (CHO) cell lines (Emmanuel Bourinet, Montpellier, France) expressing CaV3.1 were cultured under 5% carbon dioxide at 37 °C in Alpha Minimum Essential Media (MEM) Glutamax (Gibco, Life Technologies), supplemented with 10% (v/v) fetal bovine serum (FBS) and 300 μg/mL geneticin (G418) (Gibco, Life Technologies). The human neuroblastoma SH-SY5 Y cells (Victor Diaz, Goettingen, Germany) were cultured under 5% carbon dioxide at 37 °C in RPMI 1640 antibiotic-free medium (Invitrogen, Carlsbad, CA, USA), supplemented with 15% FBS and 2 mM GlutaMAX™ (Invitrogen). D-PBS (Gibco, Life Technologies) was used to wash the cells, and 0.25% Trypsin-EDTA (Gibco, Life Technologies) was used to detach cells from the flask surface. They were split in a ratio of 1:5 (ideally 1000 cells/cm^2) when they reached 70%–80% confluence (every 2–3 days). Transiently transfected CaV3.1HEK293 T cells were used in FLIPR Assays. HEK 293 T cells were cultured under 5% carbon dioxide at 37 °C in DMEM supplemented with 10% (v/v) FBS. D-PBS was used to wash the cells, and 0.25% Trypsin-EDTA was used to detach cells from the flask surface. The cells were split and seeded at 6 million cells per T175 flask, to reach 70%–80% confluence after 24 h. The next day, 12 μg DNA of human CaV3.1 was incubated in 900 μL serum-free DMEM with 36 μL FuGENE HD transfection reagent (Promega Corporation, Madison, WI, US) (1:3 DNA/Fugene ratio) for 20 min, and then the mixture was added into the cell flask slowly, drop by drop. After the transfection, the cells were cultured under 5% carbon dioxide at 37 °C for 24 h and then moved to a 28 °C incubator.
SH-SY5Y cells were seeded into 384-well black wall clear bottom plates at a density of 15,000 cells per well, resulting in 90%–95% confluence after 24 h. The media were then removed from the wells and replaced with 20 μL of 10% calcium 4 dye (Molecular Devices) in physiological salt solution (PSS) (containing 5.9 mM KCl, 1.4 mM MgCl2, 10 mM HEPES, 1.2 mM NaH2 PO4, 5 mM NaHCO3, 140 mM NaCl, 11.5 mM glucose, and 1.8 mM CaCl2, pH 7.4) with 0.1% BSA. […] Positive control on the first reagent plate contained 15 μL of PSS (0.1% BSA), whereas PSS (0.1% BSA) containing 1 µM CVID and 10 µM nifedipine (final concentration) was used as a negative control. The fluorescence readings were recorded and converted as described previously, and agonist containing 90 mM KCl + 5 mM CaCl2 was used in the second addition.
Data were plotted and analyzed using GraphPad Prism v7.0 (GraphPad Software Inc., San Diego, CA, USA). A four-parameter logistic Hill equation with variable Hill coefficients was fitted to the data for concentration-response curves. Data are means ± SEM of n independent experiments. Statistical analysis was performed with a paired Student’s t-test with statistical significance at p < 0.05.

T1 sequence (Q00975 whole entry): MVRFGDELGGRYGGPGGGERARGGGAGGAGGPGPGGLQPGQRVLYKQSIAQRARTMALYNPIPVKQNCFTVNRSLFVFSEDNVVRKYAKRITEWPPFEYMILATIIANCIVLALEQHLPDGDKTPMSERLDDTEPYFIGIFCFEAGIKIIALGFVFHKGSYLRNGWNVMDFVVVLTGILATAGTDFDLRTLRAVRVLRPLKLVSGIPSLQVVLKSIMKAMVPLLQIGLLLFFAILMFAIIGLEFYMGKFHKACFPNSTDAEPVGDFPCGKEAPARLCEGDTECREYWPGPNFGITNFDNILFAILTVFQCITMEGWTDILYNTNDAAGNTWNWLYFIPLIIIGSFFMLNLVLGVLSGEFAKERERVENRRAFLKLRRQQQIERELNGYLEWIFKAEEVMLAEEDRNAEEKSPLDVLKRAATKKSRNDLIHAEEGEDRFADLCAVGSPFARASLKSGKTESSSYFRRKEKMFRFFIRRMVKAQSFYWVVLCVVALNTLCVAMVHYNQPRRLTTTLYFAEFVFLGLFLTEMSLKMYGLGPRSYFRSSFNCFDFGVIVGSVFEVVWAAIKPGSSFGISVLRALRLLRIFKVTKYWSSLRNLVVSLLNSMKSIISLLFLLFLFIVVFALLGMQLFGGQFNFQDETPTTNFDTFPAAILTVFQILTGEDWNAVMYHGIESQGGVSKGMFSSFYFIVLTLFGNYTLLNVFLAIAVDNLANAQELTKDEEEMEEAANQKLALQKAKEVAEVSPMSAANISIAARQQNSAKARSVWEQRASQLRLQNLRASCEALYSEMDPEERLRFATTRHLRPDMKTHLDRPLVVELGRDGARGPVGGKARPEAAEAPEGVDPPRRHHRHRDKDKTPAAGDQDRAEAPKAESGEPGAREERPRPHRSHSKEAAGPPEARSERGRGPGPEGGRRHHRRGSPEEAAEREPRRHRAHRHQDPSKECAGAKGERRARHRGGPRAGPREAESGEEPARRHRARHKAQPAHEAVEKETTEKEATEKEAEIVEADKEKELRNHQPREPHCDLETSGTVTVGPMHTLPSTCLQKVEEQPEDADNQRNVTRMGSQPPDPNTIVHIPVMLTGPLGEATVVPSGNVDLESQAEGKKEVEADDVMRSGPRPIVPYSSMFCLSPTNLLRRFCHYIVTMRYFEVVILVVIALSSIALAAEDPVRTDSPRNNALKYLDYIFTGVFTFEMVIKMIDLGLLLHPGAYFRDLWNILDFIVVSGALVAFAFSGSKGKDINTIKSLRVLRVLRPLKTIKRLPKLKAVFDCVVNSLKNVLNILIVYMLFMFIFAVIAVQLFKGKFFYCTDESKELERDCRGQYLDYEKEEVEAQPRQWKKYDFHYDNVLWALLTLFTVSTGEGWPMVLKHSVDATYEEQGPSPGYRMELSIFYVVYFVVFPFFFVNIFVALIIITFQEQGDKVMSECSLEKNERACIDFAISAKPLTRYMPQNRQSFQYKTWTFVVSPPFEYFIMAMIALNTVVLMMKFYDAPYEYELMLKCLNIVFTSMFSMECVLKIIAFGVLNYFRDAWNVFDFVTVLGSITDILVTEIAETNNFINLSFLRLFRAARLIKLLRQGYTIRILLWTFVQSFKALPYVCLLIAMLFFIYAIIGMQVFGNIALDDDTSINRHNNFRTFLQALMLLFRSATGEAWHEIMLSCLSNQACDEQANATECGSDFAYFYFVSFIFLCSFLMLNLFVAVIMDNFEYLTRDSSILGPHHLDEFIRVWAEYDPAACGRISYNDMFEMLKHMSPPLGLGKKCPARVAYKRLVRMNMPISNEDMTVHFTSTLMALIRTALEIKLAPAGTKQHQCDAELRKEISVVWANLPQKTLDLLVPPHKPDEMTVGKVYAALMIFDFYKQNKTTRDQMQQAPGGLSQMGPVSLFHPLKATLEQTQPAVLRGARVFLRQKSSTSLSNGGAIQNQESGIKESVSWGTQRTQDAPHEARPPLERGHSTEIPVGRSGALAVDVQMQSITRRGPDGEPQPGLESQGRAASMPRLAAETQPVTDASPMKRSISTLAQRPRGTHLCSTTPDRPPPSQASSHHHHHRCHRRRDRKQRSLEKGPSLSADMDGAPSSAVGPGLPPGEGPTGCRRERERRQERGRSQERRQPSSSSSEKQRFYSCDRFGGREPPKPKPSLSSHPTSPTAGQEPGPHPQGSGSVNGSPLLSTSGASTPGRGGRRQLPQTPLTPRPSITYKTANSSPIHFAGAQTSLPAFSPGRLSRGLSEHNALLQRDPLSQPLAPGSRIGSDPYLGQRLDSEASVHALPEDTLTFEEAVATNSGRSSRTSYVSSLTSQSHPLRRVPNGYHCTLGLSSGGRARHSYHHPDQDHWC
T1 sequence (P54284 whole entry partner): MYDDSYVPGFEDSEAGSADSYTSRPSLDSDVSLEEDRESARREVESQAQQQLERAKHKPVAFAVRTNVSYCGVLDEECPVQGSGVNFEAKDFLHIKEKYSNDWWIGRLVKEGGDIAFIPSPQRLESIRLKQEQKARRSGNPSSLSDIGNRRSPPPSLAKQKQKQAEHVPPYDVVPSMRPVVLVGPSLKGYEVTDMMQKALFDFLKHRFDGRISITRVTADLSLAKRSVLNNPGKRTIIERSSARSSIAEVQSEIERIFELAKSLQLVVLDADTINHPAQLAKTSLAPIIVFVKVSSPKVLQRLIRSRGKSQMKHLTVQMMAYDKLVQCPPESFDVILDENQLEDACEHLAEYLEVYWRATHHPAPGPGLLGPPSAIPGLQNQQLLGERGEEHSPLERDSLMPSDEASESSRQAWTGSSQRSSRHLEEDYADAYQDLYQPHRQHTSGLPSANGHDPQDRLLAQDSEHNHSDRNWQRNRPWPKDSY
T1 sequence (P54289 25-946 partner limits assumed): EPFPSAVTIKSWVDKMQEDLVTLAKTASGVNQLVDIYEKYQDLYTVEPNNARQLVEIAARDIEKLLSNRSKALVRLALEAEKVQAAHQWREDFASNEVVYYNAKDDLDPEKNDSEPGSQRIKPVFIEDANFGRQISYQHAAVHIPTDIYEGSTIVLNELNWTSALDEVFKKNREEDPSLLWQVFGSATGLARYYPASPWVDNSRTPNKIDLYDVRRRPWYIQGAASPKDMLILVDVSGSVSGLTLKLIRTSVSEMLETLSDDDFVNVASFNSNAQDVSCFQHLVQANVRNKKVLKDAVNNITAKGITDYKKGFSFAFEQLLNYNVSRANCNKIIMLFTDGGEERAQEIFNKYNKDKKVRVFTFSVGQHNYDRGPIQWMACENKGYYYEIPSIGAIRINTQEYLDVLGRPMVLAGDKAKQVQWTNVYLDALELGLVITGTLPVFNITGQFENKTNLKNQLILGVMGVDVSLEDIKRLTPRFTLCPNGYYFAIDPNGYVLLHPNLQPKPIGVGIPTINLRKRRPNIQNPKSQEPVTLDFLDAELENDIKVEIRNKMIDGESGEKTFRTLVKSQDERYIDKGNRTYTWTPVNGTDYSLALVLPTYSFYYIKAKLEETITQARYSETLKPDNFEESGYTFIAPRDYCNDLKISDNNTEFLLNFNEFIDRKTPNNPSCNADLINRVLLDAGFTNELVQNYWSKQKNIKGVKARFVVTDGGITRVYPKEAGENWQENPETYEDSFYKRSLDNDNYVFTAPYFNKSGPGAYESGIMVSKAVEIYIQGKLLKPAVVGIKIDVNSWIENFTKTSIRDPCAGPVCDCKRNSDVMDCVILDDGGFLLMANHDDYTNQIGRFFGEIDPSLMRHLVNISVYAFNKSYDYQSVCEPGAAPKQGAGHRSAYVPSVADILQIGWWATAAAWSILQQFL
T1 sequence (P54289 947-1103 partner limits assumed): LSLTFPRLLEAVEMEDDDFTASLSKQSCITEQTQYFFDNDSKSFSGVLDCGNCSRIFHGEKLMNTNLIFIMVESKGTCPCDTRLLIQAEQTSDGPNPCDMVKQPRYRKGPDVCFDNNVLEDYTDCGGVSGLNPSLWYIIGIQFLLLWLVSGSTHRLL

- IC50: 31.3 ± 3.4 µM
SMILES: COC(=O)[C@H](Cc1c[nH]c2ccccc12)NC(=O)C(C)(c1c[nH]c2ccccc12)c1c[nH]c2ccccc12 [Compound 3, Methyl (2,2-di(1H-indol-3-yl)propanoyl)-L-tryptophanate]
